From patent US8501977B2, “Platinum complex and pharmaceutical composition containing the same” (Unitech Co., Ltd., priority 2008, dated 2013)

Tested on: U937 (human lymphoma cell)
Experiment: MTS cell proliferation test, U937 (Embodiment 7)
Assay type: cell-based
Details: U937; summary of Table 1 in words
Method: The test solution was prepared by dissolving the (compound 1) into the dimethylsulfoxide ([…]) with the concentration of 8 mg/ml.
The test was performed by using the U937 (human lymphoma cell) as the cancer cell and using the HEK293 (human fetus kidney cell) as the normal cell.
These cells were suspended in the each culture medium that the serum of 10% was added, and were dispensed in 96-well plate. And then, these were cultured in 5% CO2 at 37 degrees centigrade during a night. Next day, the test solution was prepared in the culture medium to the various concentrations (0, 4, 8, 16 μg/ml), and was dispensed into the plate that the cells were set preliminarily. And further, these were cultured in 5% CO2 at 37 degrees centigrade for three days.
The cell proliferation after the medicine addition was measured on the 3rd day from the 1st day after the medicine addition by the […] (Kit for cell proliferation test manufactured by Promega Company).
The inhibition rate (%) of the cell proliferation was obtained from the measured MTS value by the following formula. Inhibition rate(%)=(1-MTS value of medicine addition group/MTS value of medicine non-addition group)×100
Because the value which was obtained by the above-mentioned formula represents the inhibition rate of the cell proliferation, the higher the numerionl value is, the higher the medicine effect is. It is deemed that the one whose value is 50% or more has the medicine effect.

**Q.** For `O=C1[O][Pt]2([NH][C@H]3CCCC34CCC[C@@H]4[NH]2)[O]C1=O` (stereo partly drawn) [compound 1, (cis,cis-spiro[4,4]nonane-1,6-diamine) oxalatoplatinum(II) complex], which “medicine effect in the cancer cell (U937)” value is on record?
**A.** remarkable medicine effect
